Experimental data taken from article PMC7767178 (International Journal of Molecular Sciences, 2020).
Like-named read-outs stand apart in the source and are kept apart here.

Experiments:
A. veronii X-1-06909 = test: microbe, parasite or virus in culture; type: cell-based
Text: (§1) All experiments were repeated three times.

[1] = tested on: Candida albicans CMCC98001; test: microbe, parasite or virus in culture; type: cell-based; conditions: CMCC98001
Text: as §1

E. coli CVCC1515 = test: microbe, parasite or virus in culture; type: cell-based
Text: as §1

E. coli CVCC25922 = test: microbe, parasite or virus in culture; type: cell-based
Text: as §1

Escherichia coli CVCC195 = test: microbe, parasite or virus in culture; type: cell-based
Text: as §1

S. enteritidis CVCC3377 = test: microbe, parasite or virus in culture; type: cell-based
Text: as §1

S. pullorum CVCC1789 = test: microbe, parasite or virus in culture; type: cell-based
Text: as §1

S. pullorum CVCC1809 = test: microbe, parasite or virus in culture; type: cell-based
Text: as §1

S. pullorum CVCC533 = test: microbe, parasite or virus in culture; type: cell-based
Text: as §1

[2] = tested on: Staphylococcus aureus ATCC43300; test: microbe, parasite or virus in culture; type: cell-based
Text: as §1

E. coli CVCCO157 = test: MIC, microtiter broth dilution; type: cell-based; conditions: 37 °C, 16–18 h, three experiments
Text: as §1

A. veronii ACCC61732 [3] = test: Time-killing curves; type: cell-based; conditions: 2× MIC; 1 × 10^5 CFU/mL, colony counting, 0–24 h
Description: Time-killing curves were performed as previously described. […] The sample of 100 μL was taken from each flask at 0, 0.5, 1, 2, 4, 6, 8, 10, 20, and 24 h, respectively, and serially diluted for colony counting. PBS and CIP were used as the negative and positive control, respectively.

A. veronii ACCC61732 [4] = test: Post-antibiotic effect (PAE); type: cell-based; conditions: for PAE: 2 h exposure, 1000-fold dilution, 37 °C, triplicate
Description: The samples were taken from flasks for counting each hour until bacterial cultures became turbid. The untreated bacteria severed as controls. The PAE was calculated using the following equation: PAE = T − C, where T is the time (h) required for the CFU in the test culture to increase by 10-fold from the count immediately after the drug removal and C is the corresponding time (h) for the control. The experiment was performed in triplicate.

A. veronii ACCC61732 [5] = test: Resistance development, 30 serial passages; type: cell-based; conditions: A. veronii ACCC61732, 30 passages (30 days)
Description: The development of bacterial resistance of peptides was performed by the MIC assays. […] GEN, CIP, and PMB were used as controls. […] The MIC values were measured as described above. The serial passaging was repeated for 30 days.

[6] = tested on: A. veronii ACCC61732 genomic DNA; test: CD spectra of genomic DNA with peptides; type: binding; conditions: mass ratios 2.5 and 10.0, 10 min, room temperature
Description: CD spectra were performed to examine the secondary structure of genomic DNA from A. veronii ACCC61732 after incubation with peptides. […] The mixtures were loaded into a cuvette of 1.0-mm path length and scanned from 190 to 330 nm at 25 °C using a Pistar π-180 CD spectrometer (Applied Photophysics Ltd., Surry, UK).

[7] = tested on: A. veronii ACCC61732 in biofilm; type: cell-based; conditions: 2 h
Description: The mid-log phase A. veronii ACCC61732 cells (1 × 10^8 CFU/mL) were inoculated into in the 96-well plates and cultured for 24 h at 37 °C. The plates were washed twice with PBS. […] PBS was used as the negative control. The plates were treated with ultrasound for 5 min and the viable bacteria were counted on the TSA plates.

[8] = tested on: A. veronii ACCC61732 biofilms; test: Mouse model of catheter-associated biofilm infection, bacteria in catheter; type: in vivo, ICR mice; conditions: 5 μmol/kg peptide or CIP 24 h after catheter implantation, catheters collected after seven days, six mice per group
Description: Briefly, the catheter was cut into 1 cm segments; each piece was sterilized with 70% ethanol and then dried by air. Bacterial biofilms were developed on the catheter by placing individual segments into tubes containing 1.0 mL of a cell suspension (1 × 10^8 CFU/mL) in TSB. After incubation for 24 h at 37 °C, colonized catheters were recovered aseptically and rinsed with PBS to remove unbound bacteria. ICR female mice (20 ± 5 g) were anesthetized with isoflurane; the flanks were shaved and the skin was cleansed with alcohol. […] The incision was then covered with intact skin and closed with surgical suture line and the skin was disinfected. […] The untreated mice were used as the negative control and the mice with sterile catheter were used as the blank control. The mice were anesthetized and sacrificed after seven days. The catheters in the back of the mice were collected and thoroughly shaken in sterile PBS.

IL-10 = test: Serum cytokine, ELISA, peritonitis model; type: in vivo; conditions: 5 μmol/kg, 24 h after treatment, range over mice
Description: (§2) Sera and organs (livers, kidneys, spleens, and lungs) were collected from the mice at 24 h post-treatment. The organs were homogenized in sterile PBS to evaluate bacterial translocation by colony counting. The levels of cytokines (TNF-α, IL-1β, IL-6, and IL-10) in sera were detected using the ELISA kits.

IL-1β = test: Serum cytokine, ELISA, peritonitis model; type: in vivo; conditions: 5 μmol/kg, 24 h after treatment, range over mice
Description: as §2

IL-6 = test: Serum cytokine, ELISA, peritonitis model; type: in vivo; conditions: 5 μmol/kg, 24 h after treatment, range over mice
Description: as §2

TNF-α = test: Serum cytokine, ELISA, peritonitis model; type: in vivo; conditions: 5 μmol/kg, 24 h after treatment, range over mice
Description: as §2

Salmonella = conditions: range over the strains of Table 2
[9] = A. veronii X-1-06909, broth dilution, 37 °C, 16–18 h, three experiments
[10] = E. coli CVCC1515, broth dilution, 37 °C, 16–18 h, three experiments
[11] = E. coli CVCC25922, broth dilution, 37 °C, 16–18 h, three experiments
[12] = Escherichia coli CVCC195, broth dilution, 37 °C, 16–18 h, three experiments
[13] = S. enteritidis CVCC3377, broth dilution, 37 °C, 16–18 h, three experiments
[14] = S. pullorum CVCC1789, broth dilution, 37 °C, 16–18 h, three experiments
[15] = S. pullorum CVCC1809, broth dilution, 37 °C, 16–18 h, three experiments
[16] = S. pullorum CVCC533, broth dilution, 37 °C, 16–18 h, three experiments
[17] = Staphylococcus aureus ATCC43300, broth dilution, 37 °C, 16–18 h, three experiments

| Structure (SMILES) | MIC (A. veronii X-1-06909; [9]) | MIC (A. veronii X-1-06909; read-out: MIC) | MIC (E. coli CVCC1515; [10]) | MIC (E. coli CVCC25922; [11]) | MIC (Escherichia coli CVCC195; [12]) | MIC (S. enteritidis CVCC3377; CVCC3377, read-out: MIC) | MIC (S. enteritidis CVCC3377; [13]) | MIC (S. pullorum CVCC1789; CVCC1789, read-out: MIC) | MIC (S. pullorum CVCC1789; [14]) | MIC (S. pullorum CVCC1809; [15]) | MIC (S. pullorum CVCC533; [16]) | MIC [2, 17] | MIC (E. coli CVCCO157) | time to completely kill A. veronii ACCC61732 (A. veronii ACCC61732 [3]) | PAE (A. veronii ACCC61732 [4]; 1× MIC) | PAE (A. veronii ACCC61732 [4]; 2× MIC) | PAE (A. veronii ACCC61732 [4]; 4× MIC) | increase of MIC after 30 serial passages (A. veronii ACCC61732 [5]) | effect on CD spectrum of genomic DNA [6] | bacteria in biofilm killed [7]; 8 | further results |
| --- | --- | --- | --- | --- | --- | --- | --- | --- | --- | --- | --- | --- | --- | --- | --- | --- | --- | --- | --- | --- | --- |
| CC(C)[C@H]1NC(=O)CNC(=O)[C@@H](CC(N)=O)NC(=O)[C@@H](CCCNC(=N)N)NC(=O)[C@@H](Cc2ccc(O)cc2)NC(=O)[C@@H](C(C)C)NC(=O)[C@H](NC(=O)[C@H](NC(=O)[C@@H](CC(N)=O)NC(=O)[C@@H](Cc2c[nH]c3ccccc23)NC(=O)[C@@H](C)NC(=O)[C@@H](Cc2ccccc2)NC(=O)CN)C(C)C)CSSC[C@H](C(=O)N[C@H](Cc2c[nH]cn2)C(=O)N[C@H](CCCNC(=N)N)C(=O)N[C@H](CCCNC(=N)N)C(=O)N[C@H](C)C(=O)N[C@H](CC(N)=O)C(N)=O)NC(=O)[C@@H](C(C)C)NC(=O)[C@@H](CCCNC(=N)N)NC1=O [DN6NH2] | 32 µg/mL | 12.93 µM | 4 µg/mL | 8 µg/mL | 8 µg/mL | 0.81 µM | 2 µg/mL | 6.46 µM | 16 µg/mL | 8 µg/mL | 16 µg/mL | 4 µg/mL | 4 µg/mL | ≤ 1 h | 0.68 ± 0.01 h | 1.13 ± 0.11 h | 3.36 ± 0.19 h | seven-fold | elliptic intensity of the positive band declined | 64.22% | MIC [1]: 128 µg/mL; MIC (E. coli CVCC1515; E. coli CVCC1515, broth dilution, 37 °C, 16–18 h, three experiments, read-out: MIC): 1.62 µM; MIC (E. coli CVCC25922; CVCC25922, read-out: MIC): 3.23 µM; MIC (Escherichia coli CVCC195; CVCC195, read-out: MIC): 3.23 µM; MIC (S. pullorum CVCC1809; CVCC1809, read-out: MIC): 3.23 µM; MIC (S. pullorum CVCC533; CVCC533, read-out: MIC): 6.46 µM; MIC ([2]; Staphylococcus aureus ATCC43300, broth dilution, 37 °C, 16–18 h, three experiments, read-out: MIC): 1.62 µM; MIC (E. coli CVCCO157; read-out: MIC): 1.62 µM; bacteria in biofilm killed [7]; 16: 66.79%; decrease of bacterial cells in the catheter [8]: 71.55%; serum level of IL-10 (IL-10): 15.94 to 25.46 pg/mL; serum level of IL-1β (IL-1β): 8.17 to 25.94 pg/mL; serum level of IL-6 (IL-6): 104.48 to 115.43 pg/mL; serum level of TNF-α (TNF-α): 40.02 to 66.20 pg/mL; MIC values against Salmonella (Salmonella): 0.81 to 6.46 µM; structure after trypsin treatment, MS analysis (trypsin): not affected by trypsin |
| CC(C)[C@@H]1NC(=O)CNC(=O)[C@H](CC(N)=O)NC(=O)[C@H](CCCNC(=N)N)NC(=O)[C@H](Cc2ccc(O)cc2)NC(=O)[C@H](C(C)C)NC(=O)[C@@H](NC(=O)[C@@H](NC(=O)[C@H](CC(N)=O)NC(=O)[C@H](Cc2c[nH]c3ccccc23)NC(=O)[C@H](C)NC(=O)[C@H](Cc2ccccc2)NC(=O)CN)C(C)C)CSSC[C@@H](C(=O)N[C@@H](Cc2cnc[nH]2)C(=O)N[C@@H](CCCNC(=N)N)C(=O)N[C@@H](CCCNC(=N)N)C(=O)N[C@@H](C)C(=O)N[C@@H](CC(N)=O)C(N)=O)NC(=O)[C@H](C(C)C)NC(=O)[C@H](CCCNC(=N)N)NC1=O [N6NH2] | 32 µg/mL | 12.9 µM | 2 µg/mL | 4 µg/mL | 4 µg/mL | 0.81 µM | 2 µg/mL | 3.23 µM | 8 µg/mL | 4 µg/mL | 4 µg/mL | 16 µg/mL | 4 µg/mL | 8 h | 0.69 ± 0.01 h | 0.7 ± 0.01 h | 1.17 ± 0.22 h | one-fold | do not affect the double helix of genomic DNA | 65.49% | MIC ([1]; read-out: MIC): >52 µM; MIC (E. coli CVCC1515; CVCC1515, read-out: MIC): 0.81 µM; MIC ([2]; ATCC43300, read-out: MIC): 6.46 µM; PAEs, range over 1×–4× MIC (A. veronii ACCC61732 [4]; 1× to 4× MIC): 0.69 to 1.17 h; bacteria in biofilm killed [7]; 16: 75.36%; decrease of bacterial cells in the catheter [8]: 41.48%; serum level of IL-10 (IL-10): 17.02 to 20.87 pg/mL; serum level of IL-1β (IL-1β): 6.06 to 10.82 pg/mL; serum level of IL-6 (IL-6): 47.22 to 108.59 pg/mL; serum level of TNF-α (TNF-α): 40.65 to 55.67 pg/mL |
